Laboratory results taken from patent publication US12233129B2, “Methods and compositions for the treatment of cancer” (priority 2019, dated 2025).
“Also recorded” adds a separate entry of the source.

What was measured:
Format in all cases: cell-based, human
[1] = test system: HCT-116 p53+/− or p53 −/−; test: Clonogenic survival assay; details: effective doses
Source text: (§1) We next performed a clonogenic survival assay (S4E) to determine colony formation in cancer cells in the presence and absence of VTD. […] At the same time, we measured the mot-2, p53, and UBXN2A protein levels in all these cell lines. […] To verify whether VTD-induced cell death is mediated through the UBXN2A-mot-2-p53 axis, we looked at the expression of p53 in the cytoplasm and nucleus of HCT-116 cells following VTD treatment. […] Due to a high cell death in higher doses of VTD, we could not use WB analysis for reliable p53 and UBXN2A detection and quantification. Finally, we checked the effect of VTD on non-cancerous cell lines. We incubated human umbilical vein endothelial cells (HUVECs), which mimic non-cancerous endothelial cells next to tumor cells, with VTD (S4G). […] Due to the different levels of the stress condition, we observed more sensitivity to VTD in LoVo and U2OS cells versus HCT-116 cells. In addition, lack of similar response in normal cells due to the absence of stresses and cytoplasmic mot-2 further explains VTD is therefore a drug that selectively targets cancer cell.
(§2) The viability of cells was calculated as % of control.
(§3) FIG. 17: Induction of apoptosis and in vitro cytotoxicity by VTD in a human cancer cell line with different statuses of p53 and mot-2. (A-D) Cells were treated with VTD for 24, 48, and 72 hours. After incubation, dead cells were washed off, and the remaining attached cells were calculated by counting in five random fields using the Axiovert 200 M inverted microscope and AxioVision software (cell detachment assay). The % of cells attached was calculated as % of control cells. […] The data is shown as mean+SEM of three independent experiments (n=3, *p<0.05). (E-K) Cells were plated for 5 days, and the colonies of cells were treated with different concentration of VTD. The colonies of viable cells were stained with crystal violet dye and absorbance, as an index of measurement of colony forming units, was read at 562 nm (clonogenic survival assay). VTD induced a significant decrease in cell viability in a p53- and differentiation grade manner in HCT-116 poorly differentiated cells (E), HCT 116 p53+/−(F), HCT-116 p53−/− (G), LoVo well-differentiated cells (H), SW-480 (K), and two non-colon cancer cells: HepG2 (I) and U2OS (J). The data is shown as mean+SEM of three independent experiments (n=3, *p<0.05). (L) Determination of endogenous levels of mot-2, UBXN2A, HSC70, and p53 proteins in various cancer cell lines using WB. (M) HCT-116 cells were treated with VTD (10 and 30 μM) and cytoplasmic and nuclear fractions were subjected to WB. HSC70 and Orc-2 antibodies were used as cytoplasmic and nuclear markers, respectively.

[2] = test system: HCT-116; test: Clonogenic survival assay; details: in higher doses
Source text: as §1, §2, §3

[3] = test system: HepG2; test: Clonogenic survival assay; details: as low as 30 μM VTD
Source text: as §1, §2, §3

[4] = test system: LoVo; test: Clonogenic survival assay; details: as low as 30 μM VTD
Source text: as §1, §2, §3

[5] = test system: SW480; test: Clonogenic survival assay; details: mutant p53, even at higher doses
Source text: as §1, §2, §3

[6] = test system: U2OS; test: Clonogenic survival assay; details: as low as 30 μM VTD
Source text: as §1, §2, §3

[7] = test system: p53; test: Western blot of p53 in cytoplasmic and nuclear fractions of HCT-116 cells; details: VTD 10 and 30 μM
Source text: We next performed a clonogenic survival assay (S4E) to determine colony formation in cancer cells in the presence and absence of VTD. […] At the same time, we measured the mot-2, p53, and UBXN2A protein levels in all these cell lines. […] To verify whether VTD-induced cell death is mediated through the UBXN2A-mot-2-p53 axis, we looked at the expression of p53 in the cytoplasm and nucleus of HCT-116 cells following VTD treatment. […] Due to a high cell death in higher doses of VTD, we could not use WB analysis for reliable p53 and UBXN2A detection and quantification. Finally, we checked the effect of VTD on non-cancerous cell lines. […]
Nuclear and cytoplasmic fractions were prepared from the cells using NE-PER Nuclear and Cytoplasmic Extraction Reagents (Pierce, IL, USA) according to the manufacturer's instructions. Protein concentrations were determined by BCA assay followed by SDSPAGE and WB analysis with the appropriate antibodies (Supplementary Table S3).
FIG. 17: Induction of apoptosis and in vitro cytotoxicity by VTD in a human cancer cell line with different statuses of p53 and mot-2. […] After incubation, dead cells were washed off, and the remaining attached cells were calculated by counting in five random fields using the Axiovert 200 M inverted microscope and AxioVision software (cell detachment assay). The % of cells attached was calculated as % of control cells. […]

[8] = test system: HCT-116; test: Annexin V early apoptosis, VTD plus etoposide; details: VTD 10-200 μM plus etoposide 5 μM, 24 hours
Procedure: as §2
(§4) Cells were then stained with Annexin V apoptotic marker.

[9] = test system: LoVo; test: Annexin V early apoptosis, VTD plus etoposide; details: VTD 10-200 μM plus etoposide 5 μM, 24 hours
Procedure: as §2, §4

[10] = test system: SW480 colon cancer cell line; test: Flow cytometry of stem cell markers; details: VTD 72 hours
Procedure: FIG. 24 panels A-D are examples of FlowJo analysis of CD44 biomarker in SW480 cells treated with VTD for 72 hours.

## COc1ccc(C(=O)O[C@H]2CC[C@@]3(C)[C@@H]4CC[C@H]5[C@]6(O)C[C@H](O)[C@@]7(O)[C@@H](CN8C[C@@H](C)CC[C@H]8[C@@]7(C)O)[C@]6(O)C[C@@]53O[C@]24O)cc1OC [VTD, Veratridine]
[1]
  p53 dependence of anti-colony formation role: partially p53 dependent
[2]
  colony formation: reduces colony formation
[3]
  number of colonies: significantly decreases the number of colonies
[4]
  number of colonies: significantly decreases the number of colonies
[5]
  number of colonies: no response
[6]
  number of colonies: significantly decreases the number of colonies
[7]
  p53 levels in cytoplasm and nucleus (WB): increases WT-p53 levels both in the cytoplasm and nucleus; also recorded: increases p53 in both cytoplasm and nucleus compartments in a dose-dependent manner
[8]
  early apoptosis (Annexin V): significantly increased the early apoptosis
[9]
  early apoptosis (Annexin V): significantly increased the early apoptosis
[10]
  CD44+ stem cell population: significant reduction
  CD133+ stem cell population: significant reduction
  LgR5+ stem cell population: significant reduction
